Where a SMILES comes first, the peptide text is derived from it.
Experiments:
[1] = test system: HOG cells; assay: Targeted LC-MS/MS of NAA and NAAG in HOG cells incubated with NAA or NAAG media; format: cell-based, human
Procedure: Targeted mass LC-MS/MS. Simultaneous quantification of NAA and NAAG in cell culture media, cell lysates, and tissues was done by liquid chromatography-electrospray ionization-tandem mass spectrometry (LC-ESI-MS/MS).
Sample preparation. Media above the cells and cell lysates: To 20 μL of sample 40 μL of ice-cold methanol was added, mixture vigorously agitated (FastPrep, Qbiogene, Carlsbad, Calif. 20 s, speed 6), left at −20° C. for 15 min, agitated again (same cond.), centrifuged at 16,000 g for 5 min, and 50 μL of supernatant dried by vacuum centrifuge (50° C., 1 hr, SpeedVac, Thermo Scientific, West Palm Beach, Fla.). The dry residue was dissolved by 50 μL of mobile phase A (see below) and 10 μL injected into LC-MS/MS system. Tissue samples: To […] sample of wet tissue, 300 μL of deionized water and one 4 mm ceramic bead was added in 2-mL polypropylene tube and vigorously agitated (FastPrep, 20 s, speed 4, 2 cycles). A 50 μL aliquot of the homogenate was pipetted out for total protein measurement (for tissue mass normalization purpose) and 500 μL methanol added to the original vial which was again agitated (FastPrep, same conditions), left at −20° C. for 15 min, centrifuged at 16,000 g for 5 min, and 650 μL of supernatant dried by vacuum centrifuge (SpeedVac, 50° C., 1.5 hr). The dry residue was dissolved by 50 μL of mobile phase A (see below) and 10 μL injected into LC-MS/MS system.
LC-MS/MS analysis. Equipment: Agilent 1200 series HPLC (Santa Clara, Calif.) and Sciex/Applied Biosystems API 3200 QTrap (Carlsbad, Calif.). Mobile phase A: water, 3% methanol; mobile phase B: acetonitrile/methanol, 1/1. Analytical column: Kinetex C18, 150×4.6 mm, 2.6 μm, and SafeGuard C18 4×3 mm guard-column from Phenomenex (Torrance, Calif.). Column temperature: 45° C. Elution gradient at 1 mL/min flow rate: 0-1 min 0% B, 1-2 min 0-80% B, 2-3.5 min 80% B, 3.5-4 min 80-0% B, 4-10 min 0% B. Injection volume: 10 μL. The Q1/Q3 (m/z) transitions monitored in positive electrospray ionization mode: 176/158 (NAA, quantification), 176/134 (NAA, confirmation), 305/148 (NAAG, quantification), 305/130 (NAAG, confirmation).
Calibration. A set of calibrator samples in corresponding matrix was prepared for calibration by adding appropriate amounts of pure NAA and NAAG at the following concentration levels: 0, 0.01, 0.05, 0.25, 1.25, and 6.25 μg/mL. These samples were analyzed alongside the experimental samples and accuracy acceptance criteria was 85% for each but the lowest level (0.01 μg/mL, 80%). The limit of quantification (at 80% accuracy criterion) was determined to be 10 ng/ml for both NAA and NAAG. Samples in which NAA or NAAG was not detected were assigned to have a value of 0 NAA or NAAG (FIG. 5A,B). Statistically significant differences that we reported (FIG. 5A,B) were still significant when 10 ng/ml was assigned for samples in which NAA or NAAG was not detected. Quadratic least squares regression curve fit was employed to account for slight but predictable nonlinearity (ESI of highly polar analytes) with 1/x weighing factor. The addition of methanol to the sample matrix is shared with a recently reported NAAG analysis method (32). Otherwise this procedure is, to the best of our knowledge, novel.
Univariate statistics. Welch's t-test was used to determine whether mean levels of a biochemical in one experimental group were different from mean levels in another group. […]

[2] = test system: complex V (ATP synthase) of the mitochondrial electron transport chain; settings: chick neurons; reference 27; cited from earlier work
[3] = test system: HOG cells; assay: Metabolomic profiling (LC-MS, GC-MS) of HOG cell lysates after 2HG treatment or IDH1 shRNA expression; format: cell-based, human; settings: for number of biochemicals with altered levels: 72 hours, HOG cells vs vector, p<0.05
From the text: Cell lines. HOG cells were derived from a human WHO grade III anaplastic oligodendroglioma (28) and previously found not to contain exon 4 IDH1 or exon 4 IDH2 mutations (8). The HOG cell line was kindly donated by Dr. A. T. Campagnoni at UCLA. To express IDH1 and IDH2 transgenes in cells, IDH1 and IDH2 cDNAs, or cDNAs mutagenized to IDH1-R132H or IDH2-R172K, were cloned into pLenti6.2/V5 (Invitrogen, Carlsbad, Calif.). Viruses were created using these constructs in 293FT cells and these were used to transduce cells derived from the same parental pool of HOG cells for 24 h. Cells derived from the same clone were reasoned to have homogenous IDH transgene expression levels and metabolic profiles compared to pools of cells or transiently transfected cells, facilitating the identification of metabolites that have altered levels in different clones. Virus was replaced by fresh media for 48 hours and then stable clones were selected from single-cell dilutions in 5 μg/ml blasticidin for 3 weeks. Stable HOG cell lines containing IDH1 shRNA or control were constructed by transfecting HOG cells with pSuperRetro vector (OligoEngine, Seattle, Wash.) containing IDH1-specific hairpin or a scrambled sequence (5′-cat aac gag cgg aag aac g-3′). The IDH1-specific hairpin was created using the primers 5′-gat ccc cGG GAA GTT CTG GTG TCA Tat tca aga gaT ATG ACA CCA GAA CTT CCC ttt ttg gaa a-3′ and 5′-agc ttt tcc aaa aaG GGA AGT TCT GGT GTC ATA tct ctt gaa TAT GAC ACC AGA ACT TCC Cgg g-3′, with capital letters representing bases homologous to IDH1 sequence. Clones were selected with 500 μg/ml G418 for 3 weeks and expanded after single cell dilution. Percent knockdown was determined by ImageJ (v1.43, available at http://rsbweb.nih.gov/ij/, developed by Wayne Rasband, National Institutes of Health, Bethesda, Md.) analysis of the intensity of immunoblot anti-IDH1 bands, normalized to the intensity of anti-GAPDH internal control bands (FIG. S4A). The same clone of vector, IDH1-WT, and IDH1-R132H HOG cells were used in all experiments.
2HG synthesis. 2HG was synthesized by treatment of D-glutamate (Sigma-Aldrich, St. Louis, Mo.) with nitrous acid to form a lactone, which was then hydrolyzed with NaOH solution to form 2-D-hydroxyl glutarate. Purity was 93%. Powder was resuspended in PBS and filtered through a 0.22 μm filter using sterile technique for treatment of cells.
Metabolomic analysis. Cell line treatment: Cells were grown under respective experimental conditions in IMDM media (Gibco, Invitrogen, Carlsbad, Calif.) supplemented with 10% FBS. For the experiment in FIG. 2, cells were grown in a media mix that also contained either 10% PBS or 10% of a 300 mM or 75 mM 2HG solution in PBS for a final 30 mM or 7.5 mM 2HG. Cells were seeded into flasks three days before harvesting. To harvest cells, media was removed, monolayers were washed with PBS, and 0.05% trypsin/EDTA was added. Cells were incubated for 20 min at 37° C. or until cells detached. Two volumes of media were added to the Trypsin/cell mix and suspended by gentle pipetting and triteration. Cells were counted, and 10^7 cells per sample were spun down at 1000 rpm×3 min in a polystyrene tube. Cells were washed twice with PBS and then snap-frozen on dry ice and stored at −80° C. until analysis.
Metabolite analysis: Metabolomic profiling analysis of all samples was carried out in collaboration with Metabolon (Durham, N.C.) as described previously (29-31), as follows:
Sample Preparation: The sample preparation process was carried out using the automated MicroLabSTAR® system (Hamilton Company, Reno, Nev.). Recovery standards were added prior to the first step in the extraction process for QC purposes. Sample preparation was conducted using a proprietary series of organic and aqueous extractions to remove the protein fraction while allowing maximum recovery of small molecules. The resulting extract was divided into two fractions; one for analysis by LC and one for analysis by GC. […]

[4] = 30 mM 2HG-treated HOG cells vs vector, p<0.001

Structure (SMILES): CC(=O)N[C@@H](CC(=O)O)C(=O)O [NAA, N-acetyl-aspartate]
- level of NAA in IDH1-R132H expressing cells ([1]; HOG IDH1-R132H cells, 100 μM NAA media, 48 hours): increased the level of NAA in IDH1-R132H expressing cells to the normal level of NAA in the vector control
- intracellular NAA levels compared to controls ([1]; HOG cells in media containing 100 μM NAA, 48 hours): higher
- NAAG in HOG cells expressing IDH1-R132H ([1]; after NAA treatment (100 μM NAA media, 48 hours)): did not increase

Structure (SMILES): CC(=O)N[C@@H](CC(=O)O)C(=O)N[C@@H](CCC(=O)O)C(=O)O [NAAG, N-acetyl-aspartyl-glutamate] (Ac-Asp-Glu-OH)
- NAA levels in NAAG-treated cells ([1]; 10 μM NAAG, all groups (vector, IDH1-WT, IDH1-R132H)): modestly increased
- intracellular NAAG levels compared to the no treatment group ([1]; HOG cells treated with 10 μM NAAG, 48 hours): increased

Structure (SMILES): O=C(O)CC[C@@H](O)C(=O)O [2HG, 2-D-hydroxyl glutarate]
- effect on complex V (ATP synthase) [2]: impair
- number of biochemicals with altered levels ([3]; 7.5 mM 2HG): 117
- 2HG elevation (intracellular) ([3]; 30 mM 2HG group, HOG lysate vs vector, p<0.001): 54 fold
- number of biochemicals with altered levels ([3]; 30 mM 2HG): 130
- reduced and oxidized glutathione ([3]; 30 mM 2HG-treated HOG cells vs vector): not significantly affected
- α-ketoglutarate higher ([3]; 30 mM 2HG-treated HOG cells vs vector, non-significant, p=0.10): 1.3 fold
- N-acetyl-aspartate (NAA) lower ([3]; 30 mM 2HG-treated HOG cells vs vector, not significantly changed, p=0.38): 1.1 fold
- GPC higher [3, 4]: 3.0 fold
- NAAG lower [3, 4]: 1.8 fold
- choline phosphate lower [3, 4]: 100 fold
- glutamate increased ([3]; 30 mM 2HG-treated HOG cells vs vector, p=0.002): 1.4 fold
